From ChEMBL document CHEMBL2074170, “Influence of different chemicals on MDR-1 P-glycoprotein expression and activity in the HK-2 proximal tubular cell line” (Toxicol Appl Pharmacol, 2002)

Key:
[1] = biological target: T1, ATP-dependent translocase ABCB1 (Homo sapiens, UniProt P08183); experiment: TP_TRANSPORTER: RT-PCR in HK-2 cell; type: functional, cell-based
[2] = biological target: T1, ATP-dependent translocase ABCB1; experiment: TP_TRANSPORTER: Western blot, HK-2 cells; type: functional, cell-based

T1 sequence (P08183 whole entry): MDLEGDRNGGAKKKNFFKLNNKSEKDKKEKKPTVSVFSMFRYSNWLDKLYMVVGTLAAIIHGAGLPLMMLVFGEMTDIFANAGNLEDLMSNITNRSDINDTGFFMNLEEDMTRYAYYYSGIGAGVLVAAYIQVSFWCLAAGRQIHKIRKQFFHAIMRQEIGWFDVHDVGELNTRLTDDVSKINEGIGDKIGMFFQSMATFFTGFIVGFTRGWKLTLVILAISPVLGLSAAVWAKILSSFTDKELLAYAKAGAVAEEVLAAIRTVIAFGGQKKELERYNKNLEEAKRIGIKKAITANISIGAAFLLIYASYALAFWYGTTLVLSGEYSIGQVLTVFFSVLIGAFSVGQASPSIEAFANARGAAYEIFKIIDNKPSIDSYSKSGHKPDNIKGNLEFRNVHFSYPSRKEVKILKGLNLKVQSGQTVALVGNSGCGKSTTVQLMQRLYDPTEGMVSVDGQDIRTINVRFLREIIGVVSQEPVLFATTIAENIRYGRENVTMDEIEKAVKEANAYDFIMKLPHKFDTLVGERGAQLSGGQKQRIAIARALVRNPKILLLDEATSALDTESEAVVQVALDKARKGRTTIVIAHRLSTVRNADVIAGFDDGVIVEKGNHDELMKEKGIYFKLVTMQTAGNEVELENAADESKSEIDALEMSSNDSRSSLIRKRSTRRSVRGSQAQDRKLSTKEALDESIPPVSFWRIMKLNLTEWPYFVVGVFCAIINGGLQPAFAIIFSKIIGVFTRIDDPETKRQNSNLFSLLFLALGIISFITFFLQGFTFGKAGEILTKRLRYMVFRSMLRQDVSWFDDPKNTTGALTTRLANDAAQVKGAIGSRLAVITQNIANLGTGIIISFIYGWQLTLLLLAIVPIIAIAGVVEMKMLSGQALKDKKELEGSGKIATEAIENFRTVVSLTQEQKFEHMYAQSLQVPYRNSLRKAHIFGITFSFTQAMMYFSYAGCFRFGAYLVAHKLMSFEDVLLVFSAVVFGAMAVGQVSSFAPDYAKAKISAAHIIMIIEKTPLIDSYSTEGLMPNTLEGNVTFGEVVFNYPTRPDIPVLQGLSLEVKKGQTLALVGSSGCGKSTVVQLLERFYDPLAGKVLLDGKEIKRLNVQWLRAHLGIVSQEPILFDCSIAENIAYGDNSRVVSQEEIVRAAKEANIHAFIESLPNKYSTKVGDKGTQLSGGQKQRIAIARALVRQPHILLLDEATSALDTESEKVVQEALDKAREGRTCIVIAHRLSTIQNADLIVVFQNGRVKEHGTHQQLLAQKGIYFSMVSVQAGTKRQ

| SMILES | Activity [1] | Activity [2] |
| --- | --- | --- |
| CC(=O)Nc1ccc2c(c1)Cc1ccccc1-2 [2-ACETYLAMINOFLUORENE] | inducer [Decrease] | inducer [Decrease] |
| COc1ccc(CCN(C)CCCC(C#N)(c2ccc(OC)c(OC)c2)C(C)C)cc1OC (stereo unspecified) | is not an inducer [-] | is not an inducer [-] |
| COc1cc(Cc2cnc(N)nc2N)cc(OC)c1OC [TRIMETHOPRIM] | is not an inducer [-] | is not an inducer [-] |
| C[C@@H]1C[C@H]2[C@@H]3CCC4=CC(=O)C=C[C@]4(C)[C@@]3(F)[C@@H](O)C[C@]2(C)[C@@]1(O)C(=O)CO [DEXAMETHASONE] | inducer [+] | inducer [+] |
| Cc1ccc2cc3c(ccc4ccccc43)c3c2c1CC3 [3-METHYLCHOLANTHRENE] | – | inducer [Decrease] |
| CCCCCCCCCCCCCCCCOC[C@H](COP(=O)([O-])OCC[N+](C)(C)C)OC(C)=O [PLATELET ACTIVATING FACTOR] | inducer [+] | inducer [+] |
| CC(=O)[C@H]1CC[C@H]2[C@@H]3CCC4=CC(=O)CC[C@]4(C)[C@H]3CC[C@]12C [PROGESTERONE] | is not an inducer [-] | is not an inducer [-] |
| C[C@]12CCC(=O)C=C1CC[C@@H]1[C@@H]2[C@@H](O)C[C@]2(C=O)[C@@H](C(=O)CO)CC[C@@H]12 [ALDOSTERONE] | – | inducer [+] |
| CN/C(=N/CCSCc1nc[nH]c1C)NC#N [CIMETIDINE] | is not an inducer [-] | is not an inducer [-] |
